# DBAASP
# What was measured:
# Assay in all cases: ≥ marks a high value that may be exact or a test limit, other limits are often not marked, values filed in µg/mL are converted to µM
# Escherichia coli = test system: Escherichia coli
# [1] = test system: Escherichia coli ATCC 25922
# Staphylococcus aureus = test system: Staphylococcus aureus
# [2] = test system: Staphylococcus aureus ATCC 25923
# [3] = test system: Pseudomonas aeruginosa ATCC 27853
# [4] = test system: Staphylococcus epidermidis ATCC 12228
MIC [1] [µM],MIC [2] [µM],MIC [3] [µM],Structure (SMILES),also measured
16,–,–,CC[C@H](C)[C@H](NC(=O)CN)C(=O)N[C@@H](CCCCN)C(=O)N[C@@H](CCCCN)C(=O)N[C@@H](Cc1ccccc1)C(=O)N[C@@H](CC(C)C)C(=O)N[C@@H](Cc1cnc[nH]1)C(=O)N[C@H](C(=O)N[C@H](C(=O)N[C@@H](Cc1c[nH]c2ccccc12)C(=O)N[C@@H](CCCCN)C(=O)N[C@@H](Cc1ccccc1)C(=O)N[C@H](C(=O)N[C@@H](CCCCN)C(=O)N[C@@H](C)C(=O)N[C@@H](Cc1ccccc1)C(=O)N[C@H](C(=O)NCC(=O)N[C@@H](CCC(=O)O)C(=O)N[C@H](C(=O)N[C@@H](CCSC)C(=O)N[C@@H](CC(N)=O)C(=O)N[C@@H](CO)C(=O)O)[C@@H](C)CC)C(C)C)[C@@H](C)CC)[C@@H](C)CC)[C@@H](C)CC [GIKKFLHIIWKFIKAFVGEIMNS],–
4.68,9.35,–,CC[C@H](C)[C@H](NC(=O)[C@H](C)NC(=O)[C@H](CCCCN)NC(=O)[C@H](CC(C)C)NC(=O)[C@H](CC(C)C)NC(=O)CN)C(=O)N[C@@H](CCCCN)C(=O)N[C@H](C(=O)N[C@@H](CC(C)C)C(=O)N[C@@H](CC(C)C)C(N)=O)[C@@H](C)O [GLLKAIKTLL],–
44,> 27.9,–,CC[C@H](C)[C@H](NC(=O)[C@H](CCCN=C(N)N)NC(=O)[C@H](CCCCN)NC(=O)[C@H](CC(C)C)NC(=O)[C@H](CC(C)C)NC(=O)CN)C(=O)N[C@@H](CCCCN)C(=O)N[C@H](C(=O)N[C@@H](C)C(=O)N[C@@H](CC(C)C)C(N)=O)[C@@H](C)O [GLLKRIKTAL],–
30,60,40,CC(C)C[C@H](NC(=O)[C@H](CO)NC(=O)[C@@H](N)CCCCN)C(=O)N[C@@H](CCCN=C(N)N)C(=O)N[C@@H](CCCN=C(N)N)C(=O)N[C@H](C(=O)N[C@@H](Cc1c[nH]c2ccccc12)C(=O)N[C@@H](CCCN=C(N)N)C(=O)N[C@@H](CO)C(=O)N[C@@H](Cc1c[nH]c2ccccc12)C(=O)N[C@@H](CCCN=C(N)N)C(N)=O)C(C)C [KSLRRVWRSWR],–
> 100,–,> 100,NCCCC[C@H](NC(=O)[C@H](CCCCN)NC(=O)[C@H](CCCCN)NC(=O)[C@H](CCCN=C(N)N)NC(=O)[C@H](CCCN=C(N)N)NC(=O)[C@H](Cc1ccc(O)cc1)NC(=O)[C@@H](N)CCCN=C(N)N)C(N)=O [RYRRKKK],–
–,> 100,> 100,CC(C)C[C@H](NC(=O)[C@H](CCCCN)NC(=O)CNC(=O)[C@@H](N)CO)C(=O)N[C@@H](CS)C(=O)N[C@@H](CS)C(=O)N[C@@H](CCCN=C(N)N)C(=O)N[C@@H](CCCN=C(N)N)C(=O)N[C@@H](CCCCN)C(=O)N[C@@H](CCCCN)C(N)=O [SGKLCCRRKK],–

# Further lines, the compound ahead of its results:
Structure (SMILES),MIC [1] [µM],MIC [2] [µM],MIC [3] [µM],also measured
CC[C@H](C)[C@H](NC(=O)[C@H](CCCCN)NC(=O)[C@@H]1CCCN1C(=O)[C@@H](NC(=O)[C@H](CC(C)C)NC(=O)[C@H](C)NC(=O)[C@H](Cc1ccccc1)NC(=O)[C@H](Cc1ccccc1)NC(=O)CN)[C@@H](C)CC)C(=O)N[C@H](C(=O)N[C@@H](CO)C(=O)N[C@@H](CO)C(=O)N1CCC[C@H]1C(=O)N[C@@H](CC(C)C)C(=O)N[C@@H](Cc1ccccc1)C(=O)N[C@@H](CCCCN)C(=O)N[C@H](C(=O)N[C@@H](CC(C)C)C(N)=O)[C@@H](C)O)[C@@H](C)CC [GFFALIPKIISSPLFKTL],–,–,–,MIC (Escherichia coli): 17.1 µM
CC[C@H](C)[C@H](NC(=O)CN)C(=O)N[C@@H](CC(C)C)C(=O)N[C@@H](CO)C(=O)N[C@@H](CO)C(=O)N[C@@H](Cc1ccccc1)C(=O)N[C@@H](CCCCN)C(=O)NCC(=O)N[C@H](C(=O)N[C@@H](C)C(=O)N[C@@H](CCCCN)C(=O)NCC(=O)N[C@H](C(=O)N[C@@H](C)C(=O)N[C@@H](CCCCN)C(=O)N[C@@H](CC(=O)O)C(=O)N[C@@H](CC(C)C)C(=O)N[C@@H](C)C(=O)NCC(=O)N[C@@H](CCCCN)C(=O)N[C@@H](CC(C)C)C(=O)N[C@@H](CC(C)C)C(=O)N[C@@H](CCC(=O)O)C(=O)N[C@H](C(=O)N[C@@H](CC(C)C)C(=O)N[C@@H](CCCCN)C(N)=O)[C@@H](C)O)C(C)C)C(C)C [GILSSFKGVAKGVAKDLAGKLLETLK],6.3,–,–,–
CC[C@H](C)[C@H](NC(=O)[C@H](CCCCN)NC(=O)[C@H](CC(C)C)NC(=O)CNC(=O)[C@H](C)NC(=O)[C@H](CCCCN)NC(=O)[C@H](CC(C)C)NC(=O)[C@H](C)NC(=O)[C@H](CCCCN)NC(=O)CNC(=O)[C@H](CC(C)C)NC(=O)[C@H](Cc1ccccc1)NC(=O)[C@H](CO)NC(=O)[C@H](C)NC(=O)[C@H](CC(C)C)NC(=O)CN)C(=O)NCC(=O)N[C@@H](CO)C(=O)N[C@@H](Cc1cnc[nH]1)C(=O)N[C@@H](CC(C)C)C(=O)N[C@@H](CC(C)C)C(=O)NCC(=O)NCC(=O)N[C@@H](C)C(=O)N1CCC[C@H]1C(=O)N[C@@H](CCC(N)=O)C(=O)N[C@@H](CCC(N)=O)C(=O)O [GLASFLGKALKAGLKIGSHLLGGAPQQ],–,–,–,MIC (Escherichia coli): 25 µM; MIC (Staphylococcus aureus): 6 µM
CC[C@H](C)[C@H](NC(=O)[C@H](Cc1ccccc1)NC(=O)[C@H](CCCCN)NC(=O)[C@H](CC(C)C)NC(=O)[C@H](CC(C)C)NC(=O)CN)C(=O)N[C@@H](CCCCN)C(=O)N[C@H](C(=O)N[C@@H](CC(C)C)C(=O)N[C@@H](CC(C)C)C(N)=O)[C@@H](C)O [GLLKFIKTLL],1.75,1.75,–,–
CC[C@H](C)[C@H](NC(=O)[C@H](CCCN=C(N)N)NC(=O)[C@H](CCCCN)NC(=O)[C@H](CC(C)C)NC(=O)[C@H](CC(C)C)NC(=O)CN)C(=O)N[C@@H](CCCCN)C(=O)N[C@@H](Cc1ccccc1)C(=O)N[C@@H](CC(C)C)C(=O)N[C@@H](CC(C)C)C(N)=O [GLLKRIKFLL],6.66,6.66,–,–
CC[C@H](C)[C@H](NC(=O)[C@@H](NC(=O)[C@H](Cc1ccccc1)NC(=O)[C@H](CCCCN)NC(=O)[C@H](C)NC(=O)[C@H](CC(C)C)NC(=O)[C@H](CCCCN)NC(=O)CNC(=O)[C@H](CC(C)C)NC(=O)[C@@H](NC(=O)[C@@H](NC(=O)CNC(=O)[C@H](C)NC(=O)[C@H](C)NC(=O)[C@@H](NC(=O)[C@H](C)NC(=O)[C@H](CCSC)NC(=O)CN)[C@@H](C)O)[C@@H](C)O)[C@@H](C)O)C(C)C)C(=O)NCC(=O)N[C@@H](C)C(=O)N[C@H](C(N)=O)C(C)C [GMATAAGTTLGKLAKFVIGAV],–,–,–,MIC (Escherichia coli): > 80 µM; MIC (Staphylococcus aureus): > 80 µM
CC[C@H](C)[C@H](NC(=O)[C@H](CC(=O)O)NC(=O)[C@@H](NC(=O)[C@@H](NC(=O)CN)C(C)C)C(C)C)C(=O)N[C@@H](CC(C)C)C(=O)N[C@@H](CCCCN)C(=O)NCC(=O)N[C@@H](C)C(=O)N[C@@H](C)C(=O)N[C@@H](CCCCN)C(=O)N[C@@H](CC(=O)O)C(=O)N[C@@H](CC(C)C)C(=O)N[C@@H](C)C(=O)NCC(=O)N[C@@H](Cc1cnc[nH]1)C(=O)N[C@@H](CC(C)C)C(=O)N[C@@H](C)C(=O)N[C@@H](CO)C(=O)N[C@@H](CCCCN)C(=O)N[C@H](C(=O)O)C(C)C [GVVDILKGAAKDLAGHLASKV],60.6,–,–,–
CC[C@H](C)[C@H](NC(=O)[C@H](Cc1ccc(O)cc1)NC(=O)[C@H](CCC(N)=O)NC(=O)[C@H](CC(C)C)NC(=O)[C@H](C)NC(=O)[C@H](CCCCN)NC(=O)[C@H](CCCCN)NC(=O)[C@H](CCSC)NC(=O)[C@H](CCCCN)NC(=O)[C@@H](N)CCCCN)C(=O)N[C@@H](CCCCN)C(=O)N[C@@H](CC(C)C)C(=O)N[C@@H](CC(C)C)C(=O)N[C@@H](CCCCN)C(=O)N[C@@H](CCC(=O)O)C(N)=O [KKMKKALQYIKLLKE],> 100,–,> 100,–
CC[C@H](C)[C@H](NC(=O)CNC(=O)[C@H](CO)NC(=O)[C@H](CCCN=C(N)N)NC(=O)[C@@H](NC(=O)CNC(=O)[C@H](Cc1c[nH]c2ccccc12)NC(=O)[C@H](CC(C)C)NC(=O)[C@H](CC(=O)O)NC(=O)[C@@H](NC(=O)[C@H](CCCCN)NC(=O)[C@H](CC(C)C)NC(=O)[C@@H](N)CCC(N)=O)C(C)C)[C@@H](C)O)C(N)=O [QLKVDLWGTRSGI],> 100,> 100,> 100,–
CSCC[C@H](NC(=O)[C@H](CCCCN)NC(=O)[C@H](CCCCN)NC(=O)[C@H](CCCCN)NC(=O)[C@H](CCCN=C(N)N)NC(=O)[C@H](CCCN=C(N)N)NC(=O)[C@H](Cc1ccc(O)cc1)NC(=O)[C@@H](N)CCCN=C(N)N)C(=O)N[C@@H](CCCCN)C(=O)N[C@@H](CCCCN)C(=O)N[C@@H](C)C(N)=O [RYRRKKKMKKA],> 100,–,> 100,–
CC(C)C[C@H](NC(=O)[C@H](Cc1ccccc1)NC(=O)[C@H](C)NC(=O)[C@H](Cc1c[nH]c2ccccc12)NC(=O)[C@H](Cc1c[nH]c2ccccc12)NC(=O)[C@H](Cc1c[nH]c2ccccc12)NC(=O)[C@H](C)NC(=O)[C@H](Cc1ccccc1)NC(=O)[C@H](CCCCN)NC(=O)[C@H](CCCCN)NC(=O)[C@@H](N)C(C)C)C(=O)N[C@@H](CCCCN)C(=O)N[C@@H](CCCCN)C(N)=O [VKKFAWWWAFLKK],2,–,–,–
CC(C)C[C@H](NC(=O)[C@H](Cc1ccccc1)NC(=O)[C@@H]1CCCN1C(=O)[C@H](Cc1ccc(O)cc1)NC(=O)[C@H](Cc1ccc(O)cc1)NC(=O)[C@H](Cc1ccc(O)cc1)NC(=O)[C@@H]1CCCN1C(=O)[C@H](Cc1ccccc1)NC(=O)[C@H](CCCN=C(N)N)NC(=O)[C@H](CCCN=C(N)N)NC(=O)[C@@H](N)C(C)C)C(=O)N[C@@H](CCCN=C(N)N)C(=O)N[C@@H](CCCN=C(N)N)C(N)=O [VRRFPYYYPFLRR],22.6,–,–,MIC (Escherichia coli): 27.3 µM; MIC (Staphylococcus aureus): 12.2 µM
CC[C@H](C)[C@H](NC(=O)CNC(=O)[C@H](CC(C)C)NC(=O)[C@@H](NC(=O)[C@@H](N)Cc1ccc(O)cc1)[C@@H](C)O)C(=O)N[C@@H](CCCCN)C(=O)N[C@H](C(=O)N[C@@H](CC(C)C)C(=O)N[C@@H](Cc1c[nH]c2ccccc12)C(=O)N[C@@H](CO)C(=O)N[C@@H](C)C(=O)N[C@@H](Cc1ccc(O)cc1)C(=O)N[C@@H](CCCCN)C(=O)N[C@@H](Cc1cnc[nH]1)C(=O)O)[C@@H](C)CC [YTLGIKILWSAYKH],–,–,–,MIC [4]: 50 µM
